# What was measured:
# Type in all cases: cell-based
# LNCaP cells [1] = assay: Cell proliferation assay (CellTiter-Glo, total cellular ATP); conditions: charcoal-stripped serum, 0.1 nM R1881, 7 days; FIG. 1
# Method: Androgen-dependent prostate cancer cell line, LNCaP, were grown in RPMI 1640 culture medium supplemented with 10% charcoal-stripped fetal bovine serum for 24 hours in 96-well tissue culture plates at a density of 1,000 cells per well. Cells were treated with various concentrations of compounds A or B alone and in combination in presence of synthetic androgen (R1881, Sigma-Aldrich, St. Louis, Mo.). After 7 days, total cellular ATP was measured using the CellTiter-Glo Luminescent Cell Viability Assay (Promega, Madison, Wis.) on an EnVision plate reader. Background counts from wells containing no cells were subtracted and the data is presented as a percentage of the DMSO-treated control cells.
# [2] = test system: cell signaling in LNCaP cells; assay: Effect on cell signaling (immunoblot assay); conditions: 0.1 nM R1881, 6 hour, FIG. 2
# Method: LNCaP cells were grown in RPMI 1640 culture medium supplemented with 10% charcoal-stripped fetal bovine serum for 48 hours in 6-well tissue culture plates at a density of 500,000 cells per well. Cells were treated with the indicated compounds for six hours, washed with PBS, and whole cell lysates were prepared in RIPA buffer (Teknova, Hollister, Calif.). Cell lysates were clarified by centrifugation at 20,000 relative centrifugal force, 4° C., and protein was quantified using the BCA Protein Assay Kit (Pierce, Rockford, Ill.). Equal amounts of protein lysates were separated by SDS-PAGE using a 4-12% Bis-Tris polyacrylamide gel (Life Technologies) and transferred to a nitrocellulose membrane and incubated with antibodies against total and phospho-AKT, phospho-PRAS40, total and phospho-S6, androgen receptor, and FKBP5. Following incubation with primary antibody, blots were washed and incubated with IRDye-800 anti-mouse or IRDye-680 anti-rabbit antibodies for 1 h. Following thorough washing, blots were analyzed using an infrared imaging system (LI-COR).
# VCaP cells = assay: Luminescent caspase 3/7 assay in VCaP cells; conditions: 5 days, FIG. 3B
# Method: (§1) Tumor cells were seeded in 96-well white tissue culture plates in 100 μL growth media (media with 10% FBS) or CSS media (media with 10% charcoal stripped fetal bovine serum). LNCaP cells were seeded at a density of 1,000 cells per well, whereas, VCaP cells were seeded at 7,500 cells per well. Approximately 24 hr after plating, duplicate or triplicate plates of cells were treated with indicated compounds for both luminescent caspase-3/7 and CTG readings. At the end of the 5 days of incubations, half of the plates were lysed and caspase-3/7 activity was measured using the Caspase-Glo® 3/7 Assay (Promega) according to the manufacturer's protocol. Briefly, Caspase-Glo reagent was added to each plate, incubated for at least 45 minutes, and luminescent signal was read on the EnVision Multilabel Plate Reader with a 0.1 sec integration time. The remaining plates were lysed and ATP levels were measured using the CTG assay. The caspase-3/7 signal was normalized to the ATP signal. The normalized values were expressed as a percentage of the control wells.
# LNCaP cells [3] = assay: Luminescent caspase 3/7 assay in LNCaP cells; conditions: five days, FIG. 3A
# Method: as §1
SMILES,LNCaP cell growth (anti-proliferative effect) (LNCaP cells [1]),phospho-AKT (T308) ([2]; Compound B 100 or 300 nM alone or with compound A 3 uM),androgen receptor level ([2]; Compound B 100 or 300 nM),androgen receptor target gene (FKBP5) expression ([2]; Compound B 100 or 300 nM),phospho-PRAS40 (AKT downstream substrate) ([2]; Compound B 100 or 300 nM),phospho-S6 (AKT downstream substrate) ([2]; Compound B 100 or 300 nM),"caspase 3/7 activity induction in VCaP cells, media containing charcoal stripped serum (in words) (VCaP cells; Compound B 1 uM, CSS media)","caspase 3/7 activity induction in VCaP cells, growth media (in words) (VCaP cells; Compound B 1 uM, growth media)","caspase 3/7 activity induction in LNCaP cells (LNCaP cells [3]; Compound A 10 uM, Compound B 1 uM, or both, medium not specified)","caspase 3/7 activity induction in LNCaP cells, media containing charcoal stripped serum (LNCaP cells [3]; CSS media)","caspase 3/7 activity induction in LNCaP cells, growth media (LNCaP cells [3]; growth media (10% FBS))","caspase 3/7 activity induction in VCaP cells, CSS media (VCaP cells; Compound A 10 uM, CSS media)","caspase 3/7 activity induction in VCaP cells, growth media (VCaP cells; Compound A 10 uM, growth media)"
"Cn1ncc(Cl)c1-c1cc(C(=O)N[C@H](CN)Cc2cccc(F)c2)sc1Cl [Compound B, N-{(1S)-2-amino-1-[(3-fluorophenyl)methyl]ethyl}-5-chloro-4-(4-chloro-1-methyl-1H-pyrazol-5-yl)-2-thiophenecarboxamide]",inhibited,increased,no significant effect,no significant effect,inhibited,inhibited,not,strong induction,–,–,–,–,–
"CNC(=O)c1ccc(N2C(=S)N(c3ccc(C#N)c(C(F)(F)F)c3)C(=O)C2(C)C)cc1F [Compound A, 4-(3-(4-Cyano-3-(trifluoromethyl)phenyl)-5,5-dimethyl-4-oxo-2-thioxoimidazolidin-1-yl)-2-fluoro-N-methylbenzamide, reference compound]",inhibited,–,–,–,–,–,–,–,no induction,strong induction,strong induction,11 fold,2 fold

# From US20180117011A1, “ENZALUTAMIDE IN COMBINATION WITH AFURESERTIB FOR THE TREATMENT OF CANCER” (Novartis AG, priority 2013, published 2018)
